Test results as given in patent US20090156642A1, “5-Membered heterocyclic compound” (Takeda Pharmaceutical Company Limited, priority 2007, published 2009).
pIC50: −log10 of the molar value. Counter-ions that a name gives are not always drawn.

Biological target: T1, proton, potassium-adenosine triphosphatase (H+,K+-ATPase) (Sus scrofa, UniProt P19156)
T1 construct: a gastric mucous membrane microsomal fraction was prepared from the stomach of swine
Test: Proton potassium-adenosine triphosphatase (H+,K+-ATPase) inhibitory activity test
Type: biochemical
Conditions: swine gastric mucous membrane microsomal fraction, pH 6.5, 37° C., 10 mmol/L potassium chloride
Description: Proton Potassium-Adenosine Triphosphatase (H^+,K^+-ATPase) Inhibitory Activity Test
According to the method [Biochim. Biophys. Acta, 728, 31 (1983)] of Wallmark et al., a gastric mucous membrane microsomal fraction was prepared from the stomach of swine. First, the stomach was removed, washed with tap water, and immersed in 3 mol/L brine, and the surface of the mucous membrane was wiped with a paper towel. The gastric mucous membrane was detached, chopped, and homogenized in a 0.25 mol/L saccharose solution (pH 6.8) containing 1 mmol/L EDTA and 10 mmol/L tris-hydrochloric acid using polytron (Kinematica). The obtained homogenate was centrifuged at 20,000×g for 30 min and the supernatant was centrifuged at 100,000×g for 90 min. The precipitate was suspended in 0.25 mol/L saccharose solution, the suspension was superimposed on a 0.25 mol/L saccharose solution containing 7.5% Ficoll, and centrifuged at 100,000×g for 5 hr. The fraction containing the interface between the both layers was recovered, and centrifugally washed with 0.25 mol/L saccharose solution.
The obtained microsomal fraction was used as a proton, potassium-adenosine triphosphatase standard product.
To 40 μL of a 50 mmol/L HEPES-tris buffer (5 mmol/L magnesium chloride, 10 mmol/L potassium chloride, 10 μmol/L valinomycin, pH=6.5) containing 2.5 μg/mL (based on the protein concentration) of the enzyme standard product was added a test compound (5 μL) dissolved in a 10% aqueous dimethyl sulfoxide solution, and the mixture was incubated at 37° C. for 30 min. The enzyme reaction was started by adding 5 μL of a 2 mmol/L adenosine triphosphate tris salt solution (50 mmol/L HEPES-tris buffer (5 mmol/L magnesium chloride, pH 6.5)). The enzyme reaction was carried out at 37° C. for 20 min, and 15 μL of a malachite green solution (0.12% malachite green solution in sulfuric acid (2.5 mol/L), 7.5% ammonium molybdate and 11% Tween 20 were mixed at a ratio of 100:25:2) was added to quench the reaction. After allowing to stand at room temperature for 15 min, the resulting reaction product of inorganic phosphorus with malachite green was colorimetrically determined at a wavelength of 610 nm. In addition, the amount of the inorganic phosphoric acid in the reaction solution free of potassium chloride was measured in the same manner, which was subtracted from the inorganic phosphoric acid amount in the presence of potassium chloride to determine the proton, potassium-adenosine triphosphatase activity. The inhibitory rate (%) was determined from the activity value of the control and the activity values of various concentrations of the test compound, and the 50% inhibitory concentration (IC50) of the proton, potassium-adenosine triphosphatase was determined.

T1 sequence (P19156 2-1034): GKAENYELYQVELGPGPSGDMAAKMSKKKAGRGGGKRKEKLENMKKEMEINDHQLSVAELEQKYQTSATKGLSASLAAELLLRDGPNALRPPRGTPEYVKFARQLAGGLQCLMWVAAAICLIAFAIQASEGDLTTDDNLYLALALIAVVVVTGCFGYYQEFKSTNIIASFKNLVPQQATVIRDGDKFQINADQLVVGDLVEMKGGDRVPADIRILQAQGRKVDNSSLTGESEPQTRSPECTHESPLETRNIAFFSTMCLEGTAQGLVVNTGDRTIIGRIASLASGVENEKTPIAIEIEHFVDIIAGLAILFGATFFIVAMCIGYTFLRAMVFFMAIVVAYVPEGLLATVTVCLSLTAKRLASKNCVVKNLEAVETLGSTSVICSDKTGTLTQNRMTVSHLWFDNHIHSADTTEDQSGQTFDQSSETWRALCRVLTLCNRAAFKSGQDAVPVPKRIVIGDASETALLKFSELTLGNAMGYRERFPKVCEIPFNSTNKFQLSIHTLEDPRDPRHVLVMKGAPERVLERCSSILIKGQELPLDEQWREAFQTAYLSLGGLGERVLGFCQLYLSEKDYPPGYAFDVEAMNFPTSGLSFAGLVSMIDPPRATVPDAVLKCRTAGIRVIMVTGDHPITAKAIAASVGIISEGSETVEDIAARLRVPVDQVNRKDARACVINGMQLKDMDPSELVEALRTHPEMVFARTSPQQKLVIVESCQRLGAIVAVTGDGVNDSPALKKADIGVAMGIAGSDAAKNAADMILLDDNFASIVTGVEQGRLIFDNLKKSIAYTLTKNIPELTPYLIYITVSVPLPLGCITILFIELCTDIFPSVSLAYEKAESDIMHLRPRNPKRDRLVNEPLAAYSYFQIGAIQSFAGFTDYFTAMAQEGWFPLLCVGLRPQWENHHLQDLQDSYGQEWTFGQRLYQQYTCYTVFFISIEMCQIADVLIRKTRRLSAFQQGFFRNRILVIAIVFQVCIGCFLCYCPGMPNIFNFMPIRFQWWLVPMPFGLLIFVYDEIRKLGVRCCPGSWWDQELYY
T1 sequence (P18434 whole entry partner): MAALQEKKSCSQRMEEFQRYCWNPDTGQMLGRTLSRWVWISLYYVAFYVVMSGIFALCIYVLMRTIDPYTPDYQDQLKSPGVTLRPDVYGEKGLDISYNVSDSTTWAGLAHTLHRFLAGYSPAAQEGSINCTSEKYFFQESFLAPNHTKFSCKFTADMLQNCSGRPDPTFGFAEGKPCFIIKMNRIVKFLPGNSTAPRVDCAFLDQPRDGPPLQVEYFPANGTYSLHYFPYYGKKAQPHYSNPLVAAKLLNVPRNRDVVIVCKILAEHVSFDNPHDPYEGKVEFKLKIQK

| SMILES | pIC50 |
| --- | --- |
| CNCc1cc(-c2cccnc2F)c(S(=O)(=O)c2ccccc2)s1 [Example 2, 1-[4-(2-fluoropyridin-3-yl)-5-(phenylsulfonyl)-2-thienyl]-N-methylmethanamine hydrochloride] | 7.49 |
| CNCc1cc(-c2ccccc2F)c(S(=O)(=O)c2cccc(OC)c2)s1 [Example 4, 1-{4-(2-fluorophenyl)-5-[(3-methoxyphenyl)sulfonyl]-2-thienyl}-N-methylmethanamine fumarate] | 7.19 |
| CNCc1nc(-c2ccccc2F)c(S(=O)(=O)c2cccc(OC)c2)s1 [Example 13, 1-{4-(2-fluorophenyl)-5-[(3-methoxyphenyl)sulfonyl]-1,3-thiazol-2-yl}-N-methylmethanamine hydrochloride] | 7.34 |
| CNCc1cn(S(=O)(=O)c2cccs2)c(-c2ccccc2F)n1 [Example 18, 1-[2-(2-fluorophenyl)-1-(2-thienylsulfonyl)-1H-imidazol-4-yl]-N-methylmethanamine fumarate] | 7.19 |
| CNCc1cc(-c2ccccc2F)c(S(=O)(=O)c2ccccc2)s1 [Example 19, 1-[4-(2-fluorophenyl)-5-(phenylsulfonyl)thiophen-2-yl]-N-methylmethanamine hydrochloride] | 7.06 |
| CNCc1cc(-c2cccnc2F)c(S(=O)(=O)c2cccnc2)s1 [Example 48, 1-[4-(2-fluoropyridin-3-yl)-5-(pyridin-3-ylsulfonyl)thiophen-2-yl]-N-methylmethanamine] | 6.62 |
| CNCc1nc(-c2ccccc2F)c(S(=O)(=O)c2cccnc2)s1 [Example 56, 1-[4-(2-fluorophenyl)-5-(pyridin-3-ylsulfonyl)-1,3-thiazol-2-yl]-N-methylmethanamine fumarate] | 6.62 |
| CNCc1nc(-c2cccnc2F)c(S(=O)(=O)c2cccnc2)s1 [Example 60, 1-[4-(2-fluoropyridin-3-yl)-5-(pyridin-3-ylsulfonyl)-1,3-thiazol-2-yl]-N-methylmethanamine] | 6.51 |
| CNCc1cc(S(=O)(=O)c2cccnc2)c(-c2cccnc2F)s1 [Example 65, 1-[5-(2-fluoropyridin-3-yl)-4-(pyridin-3-ylsulfonyl)thiophen-2-yl]-N-methylmethanamine] | 6.60 |
| CNCc1cn(S(=O)(=O)c2ccccc2)c(-c2ccccc2F)n1 [Example 67, 1-[2-(2-fluorophenyl)-1-(phenylsulfonyl)-1H-imidazol-4-yl]-N-methylmethanamine fumarate] | 7.55 |
| CNCc1cc(S(=O)(=O)c2ccccc2)n(-c2cccnc2F)n1 [Example 79, 1-[1-(2-fluoropyridin-3-yl)-5-(phenylsulfonyl)-1H-pyrazol-3-yl]-N-methylmethanamine] | 6.72 |

The remaining lines, values ahead:

| pIC50 | SMILES |
| --- | --- |
| 6.89 | CNCc1cc(S(=O)(=O)c2cccnc2)n(-c2ccccc2F)n1 [Example 81, 1-[1-(2-fluorophenyl)-5-(pyridin-3-ylsulfonyl)-1H-pyrazol-3-yl]-N-methylmethanamine] |
| 7.08 | CNCc1cc(S(=O)(=O)c2cccc(C#N)c2)n(-c2ccccc2Cl)n1 [Example 86, 3-({1-(2-chlorophenyl)-3-[(methylamino)methyl]-1H-pyrazol-5-yl}sulfonyl)benzonitrile hydrochloride] |
| 7.07 | CNCc1cc(S(=O)(=O)c2cccnc2)n(-c2ccccc2Cl)n1 [Example 87, 1-[1-(2-chlorophenyl)-5-(pyridin-3-ylsulfonyl)-1H-pyrazol-3-yl]-N-methylmethanamine] |
| 6.96 | CNCc1cc(S(=O)(=O)c2ccc(C)nc2)n(-c2ccccc2Cl)n1 [Example 89, 1-{1-(2-chlorophenyl)-5-[(6-methylpyridin-3-yl)sulfonyl]-1H-pyrazol-3-yl}-N-methylmethanamine] |
| 6.66 | CNCc1cc(S(=O)(=O)c2cccnc2)n(-c2cccc(F)c2F)n1 [Example 98, 1-[1-(2,3-difluorophenyl)-5-(pyridin-3-ylsulfonyl)-1H-pyrazol-3-yl]-N-methylmethanamine] |
| 7.12 | CNCc1cc(S(=O)(=O)c2ccc(C)nc2)n(-c2cccc(F)c2F)n1 [Example 99, 1-{1-(2,3-difluorophenyl)-5-[(6-methylpyridin-3-yl)sulfonyl]-1H-pyrazol-3-yl}-N-methylmethanamine] |
| 6.74 | CNCc1cc(S(=O)(=O)c2cccnc2)n(-c2cccc(F)c2Cl)n1 [Example 113, 1-[1-(2-chloro-3-fluorophenyl)-5-(pyridin-3-ylsulfonyl)-1H-pyrazol-3-yl]-N-methylmethanamine fumarate] |
